US20260092062A1, “PYRIDINE CARBOXAMIDE COMPOUNDS AND THEIR USE IN TREATING MEDICAL CONDITIONS” (Rectify Pharmaceuticals, Inc., priority 2022, published 2026)

Biological target: T1, E297G variant of human ABCB11 (Homo sapiens, UniProt O95342, E297G)
T1 construct: expressed in transfected cells
Experiment: ABCB11 E297G expression assay (HiBit lytic luminescence) in HEK-293/E297G cells
Assay type: cell-based
Settings: increase in expression of ABCB11 E297G, 24 hours treatment, top concentration 25 μM, class also includes Emax criterion, read-out: BSEP EC50
From the text: To assess activity against ABCB11 E297G, the compounds were screened in an assay measuring protein expression, using cells transfected with cDNA encoding HiBit-tagged ABCB11 E297G.
Here we describe an assay for measuring the expression of the E297G variant of human ABCB11 (henceforth referred to as ABCB11 E297G) and the use of this assay to measure the efficacy of compounds to increase the expression of ABCB11 E297G. The assay was designed to characterize the efficacy and potency of compounds to increase the expression of ABCB11 E297G by calculating an Emax and EC50 value. HEK-293 cells stably expressing E297G (HEK-293/E297G cells) were used for this assay and were maintained at 37° C. (5% CO2, humidified) in Eagle's Minimum Essential Medium supplemented with 10% fetal bovine serum and 1% Glutamine. For the assay, the HEK-293/E297G cells were seeded in black/transparent-bottom 384-well plates at 20,000 cells/well in 22.5 μl Opti-MEM (Thermofisher, product #11058021) media supplemented with 2.7% of fetal bovine serum (Gibco, product #16000044) and allowed to settle for 4 hours at 37° C. (5% CO2, humidified). Compound serial dilutions are prepared in Opti-MEM as four times (4×) the final concentration and using a dilution factor of 2.15. After the four h incubation period, 7.5 μL of the 4× dilutions are transferred to the assay plate.
Dose response curves include eight doses with the top final concentration at 25 μM in 0.75% DMSO. Liquid handling is performed in a robotic device equipped with a 384-tip head (Analytik Jena—CyBio Vario). After addition of compound treatment, cells are incubated for 24 hours at 37° C. (5% CO2, humidified). After the 24-hour treatment, plates are allowed to equilibrate for 30 minutes at room temperature. Using the Analytik Jena—CyBio Vario instrument, the volume of each well is reduced to 15 μl and 15 μl of HiBit lytic assay reagent (Promega, product #N3040), which is prepared according to manufacturer's instructions, is added back to each well. The plates are incubated at room temperature for additional 30 minutes and luminescent signal is acquired using a Hamamatsu FDSS 7000 EX plate-reader (20 reads, exposure time 0.2 seconds, gain 200).
Results are presented below in Table 3 for ABCB11 E297G.

T1 sequence (O95342 whole entry E297G): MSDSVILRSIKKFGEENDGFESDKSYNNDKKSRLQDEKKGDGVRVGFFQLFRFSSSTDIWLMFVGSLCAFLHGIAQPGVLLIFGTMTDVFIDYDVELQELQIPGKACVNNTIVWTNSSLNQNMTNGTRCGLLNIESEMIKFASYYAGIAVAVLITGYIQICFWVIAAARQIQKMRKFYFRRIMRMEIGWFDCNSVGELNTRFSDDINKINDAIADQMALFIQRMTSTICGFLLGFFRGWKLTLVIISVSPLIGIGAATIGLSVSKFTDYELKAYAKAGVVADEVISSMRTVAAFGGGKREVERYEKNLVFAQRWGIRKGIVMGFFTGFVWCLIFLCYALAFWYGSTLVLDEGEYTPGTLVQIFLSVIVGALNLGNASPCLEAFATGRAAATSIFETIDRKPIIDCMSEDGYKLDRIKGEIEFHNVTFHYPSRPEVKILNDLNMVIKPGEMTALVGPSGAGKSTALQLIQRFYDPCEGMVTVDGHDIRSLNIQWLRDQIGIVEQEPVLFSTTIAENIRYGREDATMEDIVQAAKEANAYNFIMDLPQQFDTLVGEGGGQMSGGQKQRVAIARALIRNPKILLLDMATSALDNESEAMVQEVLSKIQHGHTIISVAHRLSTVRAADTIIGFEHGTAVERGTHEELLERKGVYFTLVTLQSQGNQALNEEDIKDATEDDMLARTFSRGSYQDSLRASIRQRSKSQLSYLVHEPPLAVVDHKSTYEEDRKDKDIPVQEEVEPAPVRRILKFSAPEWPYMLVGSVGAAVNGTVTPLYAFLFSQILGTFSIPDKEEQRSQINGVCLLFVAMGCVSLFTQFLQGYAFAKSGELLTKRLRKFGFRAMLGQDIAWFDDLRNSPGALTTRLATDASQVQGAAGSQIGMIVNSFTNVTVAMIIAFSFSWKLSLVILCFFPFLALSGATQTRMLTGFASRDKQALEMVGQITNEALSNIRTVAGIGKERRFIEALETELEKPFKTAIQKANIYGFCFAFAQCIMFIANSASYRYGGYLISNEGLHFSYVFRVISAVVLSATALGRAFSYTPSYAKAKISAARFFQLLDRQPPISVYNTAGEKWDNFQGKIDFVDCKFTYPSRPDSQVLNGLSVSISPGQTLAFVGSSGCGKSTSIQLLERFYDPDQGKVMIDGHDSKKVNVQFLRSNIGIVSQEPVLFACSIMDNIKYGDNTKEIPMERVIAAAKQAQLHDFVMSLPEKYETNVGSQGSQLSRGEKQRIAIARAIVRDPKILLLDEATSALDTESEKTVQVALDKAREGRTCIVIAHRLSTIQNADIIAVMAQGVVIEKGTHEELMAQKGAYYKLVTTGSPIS

Row | SMILES | EC50
1 | Cc1ccc(NC(=O)c2cnc(-c3ccccn3)nc2)nc1-c1cn(C)c(=O)c2[nH]ccc12 [Compound I-1] | 2.5 to 10 µM
2 | Cc1ccc(NC(=O)[C@@H]2CCCN2C(C)C)nc1-c1cn(C)c(=O)c2[nH]ccc12 [Compound I-2] | 2.5 to 10 µM
3 | Cc1ccc(NC(=O)c2cnn(-c3ccccc3F)c2)nc1-c1cn(C)c(=O)c2[nH]ccc12 [Compound I-3] | > 25 µM
4 | Cc1ccc(NC(=O)c2nc(-c3ccccc3)ns2)nc1-c1cn(C)c(=O)c2[nH]ccc12 [Compound I-4] | > 25 µM
5 | Cc1ccc(NC(=O)c2ccc(C(F)(F)F)nc2)nc1-c1cn(C)c(=O)c2[nH]ccc12 [Compound I-5] | 2.5 to 10 µM
6 | Cc1ccc(NC(=O)c2cccc3c2OC(C)(C)CC3)nc1-c1cn(C)c(=O)c2[nH]ccc12 [Compound I-6] | 2.5 to 10 µM
7 | Cc1ccc(NC(=O)c2cnc(C(F)(F)F)s2)nc1-c1cn(C)c(=O)c2[nH]ccc12 [Compound I-7] | > 25 µM
8 | Cc1ccc(NC(=O)c2cc(CC(C)C)nn2C)nc1-c1cn(C)c(=O)c2[nH]ccc12 [Compound I-8] | < 2.5 µM
9 | Cc1ccc(NC(=O)c2cnn(-c3ccccc3)c2C)nc1-c1cn(C)c(=O)c2[nH]ccc12 [Compound I-9] | > 25 µM
10 | Cc1cnc2ncc(C(=O)Nc3ccc(C)c(-c4cn(C)c(=O)c5[nH]ccc45)n3)n2c1 [Compound I-10] | > 25 µM
11 | Cc1ccc(NC(=O)C2CCN(c3ccccc3)CC2)nc1-c1cn(C)c(=O)c2[nH]ccc12 [Compound I-11] | < 2.5 µM
12 | Cc1ccc(NC(=O)C2CCN(c3ccccn3)CC2)nc1-c1cn(C)c(=O)c2[nH]ccc12 [Compound I-12] | 2.5 to 10 µM
13 | Cc1ccc(NC(=O)C2CCN(S(C)(=O)=O)CC2)nc1-c1cn(C)c(=O)c2[nH]ccc12 [Compound I-13] | 10 to 25 µM
14 | Cc1ccc(NC(=O)c2cc3ccc(F)cc3n2C)nc1-c1cn(C)c(=O)c2[nH]ccc12 [Compound I-14] | > 25 µM
15 | Cc1ccc(NC(=O)c2ccc3c(c2)OCCN3C)nc1-c1cn(C)c(=O)c2[nH]ccc12 [Compound I-15] | 2.5 to 10 µM
16 | Cc1ccc(NC(=O)c2nc3c(s2)CN(C)CC3)nc1-c1cn(C)c(=O)c2[nH]ccc12 [Compound I-16] | 10 to 25 µM
17 | Cc1ccc(NC(=O)C2CCC(F)(F)C2)nc1-c1cn(C)c(=O)c2[nH]ccc12 (centres unmarked) [Compound I-17] | < 2.5 µM
18 | Cc1ccc(NC(=O)c2ccc3c(c2)n(C)c(=O)n3C)nc1-c1cn(C)c(=O)c2[nH]ccc12 [Compound I-18] | > 25 µM
19 | Cc1ccc(NC(=O)c2cc(-c3ccccc3)no2)nc1-c1cn(C)c(=O)c2[nH]ccc12 [Compound I-19] | > 25 µM
20 | Cc1ccc(NC(=O)c2ccc3c(ccn3C)c2)nc1-c1cn(C)c(=O)c2[nH]ccc12 [Compound I-20] | 2.5 to 10 µM
21 | Cc1ccc(NC(=O)c2cnn(C3CCOCC3)c2)nc1-c1cn(C)c(=O)c2[nH]ccc12 [Compound I-21] | 10 to 25 µM
22 | Cc1ccc(NC(=O)c2coc(N3CCOCC3)n2)nc1-c1cn(C)c(=O)c2[nH]ccc12 [Compound I-22] | 2.5 to 10 µM
23 | Cc1ccc(NC(=O)c2ccc(-n3cccn3)cc2)nc1-c1cn(C)c(=O)c2[nH]ccc12 [Compound I-23] | > 25 µM
24 | Cc1ccc(NC(=O)c2ccncn2)nc1-c1cn(C)c(=O)c2[nH]ccc12 [Compound I-24] | 10 to 25 µM
25 | CCOC(=O)N1CCC(C(=O)Nc2ccc(C)c(-c3cn(C)c(=O)c4[nH]ccc34)n2)CC1 [Compound I-25] | 2.5 to 10 µM
26 | Cc1ccc(NC(=O)c2ccc3cnccc3c2)nc1-c1cn(C)c(=O)c2[nH]ccc12 [Compound I-26] | 2.5 to 10 µM
27 | Cc1ccc(NC(=O)c2cc3n(n2)CCCC3)nc1-c1cn(C)c(=O)c2[nH]ccc12 [Compound I-27] | 2.5 to 10 µM
28 | Cc1ccc(NC(=O)C2CCCc3ccccc32)nc1-c1cn(C)c(=O)c2[nH]ccc12 (centres unmarked) [Compound I-176] | < 2.5 µM
29 | Cc1ccc(NC(=O)C2CCc3ccccc32)nc1-c1cn(C)c(=O)c2[nH]ccc12 (centres unmarked) [Compound I-177] | 2.5 to 10 µM
